The term IC50 denotes the midpoint of a concentration-inhibition curve. Read a low IC50 as greater potency.

The target in this test is EGFR (human) (UniProt P00533).

Structures are written as SMILES.

EGFR (human), sequence (P00533 whole entry, looked up): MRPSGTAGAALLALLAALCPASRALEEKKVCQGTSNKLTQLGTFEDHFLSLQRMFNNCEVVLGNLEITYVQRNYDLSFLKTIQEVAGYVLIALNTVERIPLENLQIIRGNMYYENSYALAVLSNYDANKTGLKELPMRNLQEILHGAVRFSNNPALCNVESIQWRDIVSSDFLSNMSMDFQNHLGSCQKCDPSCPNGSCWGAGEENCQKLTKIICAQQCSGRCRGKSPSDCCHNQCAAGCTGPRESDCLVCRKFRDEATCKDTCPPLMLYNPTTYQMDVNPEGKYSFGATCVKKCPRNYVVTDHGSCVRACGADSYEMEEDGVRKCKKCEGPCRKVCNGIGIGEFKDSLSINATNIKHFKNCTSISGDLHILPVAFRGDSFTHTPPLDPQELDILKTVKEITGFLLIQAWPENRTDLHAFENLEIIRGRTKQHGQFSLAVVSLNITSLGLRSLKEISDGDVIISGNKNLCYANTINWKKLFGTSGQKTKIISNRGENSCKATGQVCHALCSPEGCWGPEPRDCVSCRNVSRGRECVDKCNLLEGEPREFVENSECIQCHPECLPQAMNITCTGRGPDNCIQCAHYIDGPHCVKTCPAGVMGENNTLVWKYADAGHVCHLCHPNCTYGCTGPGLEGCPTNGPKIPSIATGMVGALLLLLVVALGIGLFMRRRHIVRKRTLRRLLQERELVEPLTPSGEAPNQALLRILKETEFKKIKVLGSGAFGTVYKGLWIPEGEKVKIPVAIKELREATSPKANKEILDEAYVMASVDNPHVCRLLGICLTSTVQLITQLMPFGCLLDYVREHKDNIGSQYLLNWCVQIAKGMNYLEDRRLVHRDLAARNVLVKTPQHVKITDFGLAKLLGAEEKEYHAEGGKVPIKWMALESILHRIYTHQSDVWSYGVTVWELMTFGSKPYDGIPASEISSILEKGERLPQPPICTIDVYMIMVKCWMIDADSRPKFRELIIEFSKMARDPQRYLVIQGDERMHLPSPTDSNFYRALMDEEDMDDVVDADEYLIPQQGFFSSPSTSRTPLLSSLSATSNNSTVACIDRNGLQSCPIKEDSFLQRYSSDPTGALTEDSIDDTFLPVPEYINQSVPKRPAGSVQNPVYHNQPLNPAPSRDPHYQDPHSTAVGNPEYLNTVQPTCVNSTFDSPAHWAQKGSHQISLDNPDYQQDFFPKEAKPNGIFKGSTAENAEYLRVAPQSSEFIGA

`CCc1nc(-c2cccc(NC(=O)c3c(F)cccc3F)c2)c(-c2ccnc(Nc3ccc(N4CCC(N5CCCCC5)CC4)c(F)c3)n2)s1`: the half-maximal inhibitory concentration (IC50) is < 100 nM.

As to `NS(=O)(=O)CCc1cccc(Nc2nccc(-c3scnc3-c3cccc(NC(=O)c4c(F)cccc4F)c3)n2)c1`, the half-maximal inhibitory concentration (IC50) was < 100 nM.

For `CCN(CC)CCOc1cccc(Nc2nccc(-c3scnc3-c3cccc(NC(=O)c4cc(F)ccc4F)c3)n2)c1`, the IC50 was < 100 nM.

With `O=C(Nc1cccc(-c2nc(NCCCN3CCOCC3)sc2-c2ccnc(Nc3cccc(F)c3)n2)c1)c1c(F)cccc1F`, the IC50 is < 100 nM.

On to `CN(C)Cc1cccc(Nc2nccc(-c3scnc3-c3cccc(NC(=O)Cc4cccs4)c3)n2)c1`, for which the half-inhibitory concentration (IC50) is < 100 nM.

On to `O=C(Nc1cccc(-c2ncsc2-c2ccnc(Nc3ccc4c(c3)CNCC4)n2)c1)c1c(F)cccc1F`, for which the concentration for half-maximal inhibition (IC50) was < 100 nM.

Regarding `CN(C)CCOc1ccc(Nc2nccc(-c3sc(N4CCN(C)CC4)nc3-c3cccc(NC(=O)c4c(F)cccc4F)c3)n2)cc1Cl`, the IC50 was < 100 nM.

Turning to `CCN(CC)CCOc1cccc(Nc2nccc(-c3scnc3-c3cccc(NC(=O)Cc4cccs4)c3)n2)c1`, the IC50 was < 100 nM.

Regarding `Nc1nc(-c2cccc(NC(=O)c3c(F)cccc3F)c2)c(-c2ccnc(Nc3cccc(CCS(N)(=O)=O)c3)n2)s1`, the IC50 was < 100 nM.

In the case of `COCCOc1ccc(Nc2nccc(-c3sc(N)nc3-c3cccc(NC(=O)c4c(F)cccc4F)c3)n2)cc1F`, the 50% inhibitory concentration (IC50) is < 100 nM.

Turning to `COc1ccc(Nc2nccc(-c3sc(N)nc3-c3cccc(NC(=O)c4c(F)cccc4F)c3)n2)cc1N1CCNCC1`, the IC50 was < 100 nM.

Regarding `CCN(CC)CCOc1cccc(Nc2nccc(-c3scnc3-c3cccc(NC(=O)c4c(F)cccc4F)c3)n2)c1`, the IC50 is < 100 nM.

Take `CN(C)CCOc1ccc(Nc2nccc(-c3sc(N4CCCCC4)nc3-c3cccc(NC(=O)c4c(F)cccc4F)c3)n2)cc1Cl`: the IC50 is < 100 nM.

With `CNc1nc(-c2cccc(NC(=O)c3c(F)cccc3F)c2)c(-c2ccnc(Nc3cccc(CN4CCCC4)c3)n2)s1`, the IC50 was < 100 nM.

Turning to `COc1ccc(Nc2nccc(-c3sc(N)nc3-c3cccc(NC(=O)c4c(F)cccc4F)c3)n2)cc1N(C)C`, the concentration for half-maximal inhibition (IC50) was < 100 nM.

For the origin of these results see the Kinase Knowledgebase extract (Sharma et al. 2016).
